Measured values taken from the NIST ThermoML archive (doi:10.1021/je050089u).
± gives the expanded uncertainty stated by the source.

Test: excess molar enthalpy (molar enthalpy of mixing); xn = mol fraction of the nth substance listed
Settings: Fluid (supercritical or subcritical phases)

COC(=O)OC [dimethyl carbonate] + O=C=O
excess molar enthalpy [kcal/mol]
Settings	298.15 K	303.15 K
5000 kPa, x2 = 0.0793	-0.207 ± 0.00382	-0.237 ± 0.00406
5000 kPa, x2 = 0.1538	-0.427 ± 0.00693	-0.446 ± 0.00717
5000 kPa, x2 = 0.224	-0.636 ± 0.0103	-0.641 ± 0.0103
5000 kPa, x2 = 0.2902	-0.832 ± 0.0131	-0.833 ± 0.0134
5000 kPa, x2 = 0.3528	-1.02 ± 0.0163	-1.01 ± 0.016
5000 kPa, x2 = 0.4121	-1.15 ± 0.0182	-1.19 ± 0.0189
5000 kPa, x2 = 0.4683	-1.33 ± 0.021	-1.33 ± 0.021
5000 kPa, x2 = 0.5216	-1.48 ± 0.0232	-1.48 ± 0.0234
5000 kPa, x2 = 0.5723	-1.59 ± 0.0239	-1.6 ± 0.0263
5000 kPa, x2 = 0.6206	-1.71 ± 0.0263	-1.71 ± 0.0263
5000 kPa, x2 = 0.6666	-1.82 ± 0.0287	-1.83 ± 0.0287
5000 kPa, x2 = 0.7104	-1.92 ± 0.0311	-1.93 ± 0.0311
5000 kPa, x2 = 0.7523	-1.99 ± 0.0311	-2.01 ± 0.0311
5000 kPa, x2 = 0.7686	–	-2.04 ± 0.0311
5000 kPa, x2 = 0.7766	–	-2.04 ± 0.0311
5000 kPa, x2 = 0.7924	-2.07 ± 0.0335	–
5000 kPa, x2 = 0.8307	-2.13 ± 0.0335	-1.48 ± 0.0234
5000 kPa, x2 = 0.8382	-2.09 ± 0.0335	–
5000 kPa, x2 = 0.8674	-1.69 ± 0.0263	-1.15 ± 0.0182
5000 kPa, x2 = 0.9026	-1.26 ± 0.0201	-0.913 ± 0.0146
5000 kPa, x2 = 0.9364	-0.785 ± 0.0124	-0.571 ± 0.00932
5000 kPa, x2 = 0.9688	-0.384 ± 0.00621	-0.254 ± 0.0043
5000 kPa, x2 = 0.9969	0.0153 ± 0.00191	–
5500 kPa, x2 = 0.0798	–	-0.214 ± 0.00382
5500 kPa, x2 = 0.1548	-0.4 ± 0.00669	-0.438 ± 0.00717
5500 kPa, x2 = 0.2253	-0.618 ± 0.01	-0.619 ± 0.01
5500 kPa, x2 = 0.2918	-0.794 ± 0.0127	-0.798 ± 0.0127
5500 kPa, x2 = 0.3546	-0.967 ± 0.0153	-0.989 ± 0.0158
5500 kPa, x2 = 0.4139	-1.12 ± 0.0177	-1.15 ± 0.0182
5500 kPa, x2 = 0.4702	-1.27 ± 0.0201	-1.3 ± 0.0206
5500 kPa, x2 = 0.5235	-1.4 ± 0.0222	-1.41 ± 0.0222
5500 kPa, x2 = 0.5742	-1.52 ± 0.0239	-1.54 ± 0.0239
5500 kPa, x2 = 0.6223	-1.61 ± 0.0263	-1.64 ± 0.0263
5500 kPa, x2 = 0.6682	-1.73 ± 0.0263	-1.75 ± 0.0287
5500 kPa, x2 = 0.712	-1.82 ± 0.0287	-1.85 ± 0.0287
5500 kPa, x2 = 0.7537	-1.91 ± 0.0287	-1.92 ± 0.0311
5500 kPa, x2 = 0.7936	-1.98 ± 0.0311	-1.98 ± 0.0311
5500 kPa, x2 = 0.8318	-2.02 ± 0.0311	-2.02 ± 0.0311
5500 kPa, x2 = 0.8392	–	-2.01 ± 0.0311
5500 kPa, x2 = 0.8466	–	-1.89 ± 0.0287
5500 kPa, x2 = 0.8683	-2.04 ± 0.0311	-1.62 ± 0.0263
5500 kPa, x2 = 0.9033	-2.03 ± 0.0311	-1.18 ± 0.0186
5500 kPa, x2 = 0.9368	-1.51 ± 0.0237	-0.733 ± 0.0117
5500 kPa, x2 = 0.9691	-0.767 ± 0.0122	-0.331 ± 0.0055
6000 kPa, x2 = 0.0803	–	-0.202 ± 0.00382
6000 kPa, x2 = 0.1557	-0.389 ± 0.00645	-0.41 ± 0.00669
6000 kPa, x2 = 0.2265	-0.558 ± 0.00908	-0.6 ± 0.00956
6000 kPa, x2 = 0.2932	-0.797 ± 0.0127	-0.78 ± 0.0124
6000 kPa, x2 = 0.3561	-0.905 ± 0.0143	-0.923 ± 0.0146
6000 kPa, x2 = 0.4156	-1.04 ± 0.0165	-1.1 ± 0.0174
6000 kPa, x2 = 0.4718	-1.19 ± 0.0189	-1.23 ± 0.0194
6000 kPa, x2 = 0.5252	-1.29 ± 0.0203	-1.36 ± 0.0215
6000 kPa, x2 = 0.5758	-1.4 ± 0.022	-1.47 ± 0.0232
6000 kPa, x2 = 0.6239	-1.52 ± 0.0239	-1.58 ± 0.0239
6000 kPa, x2 = 0.6697	-1.62 ± 0.0263	-1.67 ± 0.0263
6000 kPa, x2 = 0.7134	-1.69 ± 0.0263	-1.76 ± 0.0287
6000 kPa, x2 = 0.755	-1.73 ± 0.0263	-1.82 ± 0.0287
6000 kPa, x2 = 0.7947	-1.8 ± 0.0287	–
6000 kPa, x2 = 0.8327	-1.85 ± 0.0287	–
6000 kPa, x2 = 0.8691	-1.87 ± 0.0287	–
6000 kPa, x2 = 0.9039	-1.89 ± 0.0287	–
6000 kPa, x2 = 0.9502	-1.86 ± 0.0287	–
6000 kPa, x2 = 0.9693	-1.78 ± 0.0287	–
6000 kPa, x2 = 0.9817	-0.864 ± 0.0139	–
